From ChEMBL document CHEMBL1201862, “PubChem BioAssay data set” (2004)
Calls of active or inactive are those of the source.

What was measured:
[1] = intracellular Trypanosoma cruzi inhibitors in host cells – cell-based, plate reader, cherry-pick samples, set 3, dose response (AID 651818); format: functional;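 further: compounds incubated with infected cells for about four days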
[2] = biological target: T1, Carboxy-terminal domain RNA polymerase II polypeptide A small phosphatase 1 (Homo sapiens, UniProt Q9GZU7); assay: CTDSP1 inhibitors, concentration-response, biochemical, absorbance readout, ultra-high-throughput screen actives (AID 540297); format: functional
T1 sequence (Q9GZU7 whole entry): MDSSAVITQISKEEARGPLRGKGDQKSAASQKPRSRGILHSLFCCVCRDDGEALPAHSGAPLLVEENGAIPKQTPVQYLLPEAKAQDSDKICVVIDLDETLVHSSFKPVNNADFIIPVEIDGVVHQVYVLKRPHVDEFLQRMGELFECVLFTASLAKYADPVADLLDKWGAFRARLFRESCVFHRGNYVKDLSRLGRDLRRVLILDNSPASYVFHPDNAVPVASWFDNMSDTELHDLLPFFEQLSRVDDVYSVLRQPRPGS

[3] = P. falciparum Dd2 growth inhibitors, dose response, SYBR Green, cherry-picked samples (AID 1159567); format: functional, cell-based
Streptokinase A = biological target: T2, Streptokinase A (Streptococcus pyogenes serotype M1, UniProt P10520); assay: viability-normalized secreted streptokinase activity reduction – plasminogen activation absorbance, OD405, dose response (AID 1914); format: functional, Streptococcus pyogenes M1 GAS;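 further: secreted streptokinase activity via plasminogen activation per viability signal from cell pellet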
T2 sequence (P10520 whole entry): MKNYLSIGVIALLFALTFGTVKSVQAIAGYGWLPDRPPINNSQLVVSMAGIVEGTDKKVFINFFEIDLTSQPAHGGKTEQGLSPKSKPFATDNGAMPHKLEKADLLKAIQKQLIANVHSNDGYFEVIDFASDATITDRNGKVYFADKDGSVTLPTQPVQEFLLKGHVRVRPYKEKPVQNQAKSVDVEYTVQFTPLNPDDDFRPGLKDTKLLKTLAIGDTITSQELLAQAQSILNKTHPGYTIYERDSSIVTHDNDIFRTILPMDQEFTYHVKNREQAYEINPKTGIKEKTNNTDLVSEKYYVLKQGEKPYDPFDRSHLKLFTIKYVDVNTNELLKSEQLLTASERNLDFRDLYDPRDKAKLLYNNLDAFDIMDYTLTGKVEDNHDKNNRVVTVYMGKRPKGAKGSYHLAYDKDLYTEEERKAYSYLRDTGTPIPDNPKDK

Streptococcus = assay: GAS UMAA2166 growth inhibition – luminescence, BacTiterGlo, counter-screen for streptokinase expression inhibitor project, dose response (AID 1915); format: functional, organism-based;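 further: potency for reduction of bacterial viability or growth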
[4] = tested on: Streptococcus sp. 'group A'; assay: Streptococcus pyogenes SK(-)GAS viability under kanamycin – luminescence, BacTiterGlo, confirmation, counter-screen for streptokinase expression inhibitor project, dose response (AID 1900); format: functional, organism-based
cells = format: functional
[5] = fluconazole-exposed Candida albicans growth modulators – fluorescence, retest, confirmation (AID 2467); format: functional, cell-based
H4 = assay: Luminescence Cell-Based Dose Response HTS to Identify Activators of 5'UTR Stem-Loop Driven Prion Protein mRNA Translation in H4 Neuroglioblastoma Cells. [Related pubchem assays: 1829 (Project Summary), 1814 (Primary HTS)]; format: functional; conditions: Homo sapiens
[6] = Luminescence Cell-Based Dose Response HTS to Identify Activators of Luciferase Translation or Activity in H4 […] Cells. [Related pubchem assays: 1829 (Project Summary), 1814 (Primary HTS)]; format: functional
[7] = Luminescence Cell-Based Dose Confirmation HTS to Identify Activators of 5'UTR Stem-Loop Driven Alpha-Synuclein mRNA Translation in H4 Neuroglioblastoma Cells. [Related pubchem assays: 1829 (Project Summary), 1814 (Primary HTS)]; format: functional
[8] = NIH-3T3 fibroblast cytotoxicity, dose response, cytotoxicity control, cell-based, fluorescence, Alamar Blue, secondary assay (AID 2327); format: functional;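 further: NIH-3T3 mouse fibroblasts cultured with fluconazole at 8 µg/mL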
[9] = reduction of Shn3 3'UTR-driven luciferase in osteoblasts – cell-based, Clone20 osteoblasts, firefly luciferase, cherry-picked, dose response (AID 624132); format: functional;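 further: firefly luciferase luminescence from reporter carrying the Shn3 3'UTR in osteoblasts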
[10] = non-specific 3'UTR reporter inhibition in Clone20-Shn3RL – cell-based, Renilla luciferase, cherry-picked, counter-screen for Shn3 inhibitor project, dose response (AID 624133); format: functional
BJ [11] = assay: cells; format: functional, cell-based; conditions: Homo sapiens
[12] = DRD fibroblast viability loss – cell-based, non-viral oncogenic, luminescence, dose response (AID 1934); format: functional; conditions: Homo sapiens
BJ [13] = assay: BJ-TERT-LT-ST fibroblast viability loss – cell-based, RAS-independent, luminescence, dose response (AID 1935); format: functional; conditions: Homo sapiens;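 further: BJ fibroblasts immortalized with TERT plus LT and ST oncogenes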
BJ [14] = assay: BJ-TERT fibroblast viability loss – cell-based, RAS-independent, luminescence, dose response (AID 1933); format: functional; conditions: Homo sapiens
Cytochrome P450 2C19 = Cytochrome P450 2C19 (Homo sapiens, UniProt P33261); assay: Cytochrome panel assay with activity outcomes. Panel member name: p450-cyp2c19 Compounds with AC50 equal or less than 10 uM are considered active; format: functional; conditions: read-out: AC50
Cytochrome P450 2C19, sequence (P33261 whole entry): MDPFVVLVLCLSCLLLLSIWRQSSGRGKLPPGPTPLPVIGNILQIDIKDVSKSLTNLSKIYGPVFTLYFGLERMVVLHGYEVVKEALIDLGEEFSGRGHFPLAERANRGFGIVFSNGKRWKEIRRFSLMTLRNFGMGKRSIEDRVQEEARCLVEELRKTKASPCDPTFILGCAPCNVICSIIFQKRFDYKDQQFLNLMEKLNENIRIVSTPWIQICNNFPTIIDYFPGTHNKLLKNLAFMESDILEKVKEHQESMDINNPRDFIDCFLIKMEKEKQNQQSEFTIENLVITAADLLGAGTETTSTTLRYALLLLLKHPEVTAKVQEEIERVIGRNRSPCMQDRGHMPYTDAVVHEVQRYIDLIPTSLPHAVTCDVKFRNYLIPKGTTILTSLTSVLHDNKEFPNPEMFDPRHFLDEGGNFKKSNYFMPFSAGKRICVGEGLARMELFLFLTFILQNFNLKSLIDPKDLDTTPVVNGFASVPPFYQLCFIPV

In the case of `C[C@@H]1CCCCO[C@@H](CN(C)CC2CCCCC2)[C@@H](C)CN([C@H](C)CO)C(=O)c2cc(NC(=O)Nc3ccc(F)cc3)ccc2O1`, the AC50 [1] is reported as 1.64 µM (active).

In the case of `COc1cc(Cl)c(C)cc1NC(=O)CSc1sc2c(O)cc(=O)[nH]c2c1C#N`, the IC50 [2] is reported as 2.46 µM (active).

For `COc1ccccc1-c1cccc(-c2nc(C(=O)Nc3nccs3)cc3c2[C@H](CCO)N(C(=O)CC2CC2)C3)c1`, the AC50 [3] was 4.27 µM (active).

With `C=C(C)CCOC(=O)C(CC(=O)O)NCc1ccco1` (centres undefined) the IC50 [2] was 4.85 µM (active).

For `C[C@@H]1CCCCO[C@H](CN(C)Cc2ccc(Cl)c(Cl)c2)[C@@H](C)CN([C@H](C)CO)C(=O)c2cc(NC(=O)CCCCCC(=O)Nc3ccccc3N)ccc2O1`, the AC50 [1] was 2.65 µM (active).

In the case of `CCOc1ccccc1C(=O)OCC(=O)Nc1nnc(-c2ccccc2)o1`, the EC50 (Streptokinase A) is reported as > 150 µM (not active), the EC50 (Streptococcus) is reported as 14.6 µM (active) and the EC50 [4] is reported as 4.56 µM (active). The IC50 (cells) was 19.2 µM (active).

In the case of `CC(C)C#Cc1ccc([C@@H]2[C@H](CO)N3CCCCN(C(=O)c4ccc5c(c4)OCO5)C[C@@H]23)cc1`, the AC50 [3] is reported as 5.18 µM (active).

With `C[C@@H]1CN([C@@H](C)CO)C(=O)c2cccc(NC(=O)CCCCCC(=O)Nc3ccccc3N)c2O[C@H]1CN(C)Cc1ccc(Oc2ccccc2)cc1` the AC50 [1] was 2.21 µM (active).

In the case of `CO[C@@H]1CN(C)C(=O)c2ccc(NC(=O)NC3CCCCC3)cc2OC[C@@H](C)N(CCc2ccccc2)C[C@H]1C`, the AC50 [3] is reported as 5.41 µM (active).

With `C[C@@H]1CN([C@@H](C)CO)C(=O)c2cccc(NC(=O)Nc3ccc4c(c3)OCO4)c2O[C@H]1CN(C)Cc1ccc(Cl)c(Cl)c1` the AC50 [1] was 2.22 µM (active).

With `CC(C)NC(=O)N(C)C[C@H]1Oc2c(NC(=O)c3cnccn3)cccc2C(=O)N([C@H](C)CO)C[C@H]1C` the AC50 [1] was 3.41 µM (active).

In the case of `CC1=C/C(=N\NC(=S)NCCc2ccccc2)CC(C)(C)C1`, the EC50 (Streptokinase A) is reported as 64 µM (active), the EC50 [5] is reported as > 38 µM (not active) and the EC50 (Streptococcus) is reported as > 150 µM (not active). For the same molecule, the EC50 [4] was 11.4 µM (active), the EC50 (H4) was > 120 µM (not active) and the EC50 [6] was 14.2 µM (active). For the same molecule, the EC50 [7] was 12.1 µM (active) and the EC50 [8] was > 150 µM (inactive).

With `CC(C)(C)[S@+]([O-])N1Cc2cc(C(=O)NCCN3CCCC3)nc(-c3cccc(-c4ccc(C#N)cc4)c3)c2[C@@H]1CCO` the AC50 [3] was 6.6 µM (active).

In the case of `C[C@H]1CN([C@@H](C)CO)C(=O)Cc2cc(NC(=O)Nc3ccc4c(c3)OCO4)ccc2O[C@H]1CN(C)Cc1ccc(-c2ccccc2)cc1`, the AC50 [1] is reported as 6.07 µM (active).

In the case of `O=C(C1=C[C@@H](C2CC2)C[C@@H](OCCCCO)O1)N1CCN(Cc2ccccc2)CC1`, the AC50 [9] is reported as > 70 µM (inactive) and the AC50 [10] is reported as > 70 µM (inactive).

With `CC1=CC(C)(C)N(C(=O)CCl)c2cc(C)ccc21` the EC50 (BJ [11]) was > 150 µM (not active), the EC50 [12] was 29.8 µM (active) and the EC50 (BJ [13]) was > 150 µM (not active). For the same molecule, the EC50 (BJ [14]) was 5.77 µM (active).

In the case of `C[C@H](CO)N1C[C@H](C)[C@@H](CN(C)Cc2ccc3c(c2)OCO3)Oc2c(NC(=O)CCCCCC(=O)Nc3ccccc3N)cccc2C1=O`, the AC50 [1] is reported as 2.21 µM (active).

With `O=C(Cn1cnc2sc(-c3ccccc3)cc2c1=O)NCc1ccccc1` the IC50 [2] was 7.5 µM (active).

With `Cc1ccc(S(=O)(=O)Nc2ccc3c(c2)C(=O)N([C@@H](C)CO)C[C@H](C)[C@@H](CN(C)Cc2ccc(-c4ccccc4)cc2)O3)cc1` the AC50 [1] was 3.88 µM (active).

In the case of `NC(=O)c1ccc(NC(=O)COC(=O)c2cc3c(s2)CCC3)cc1`, the IC50 [2] is reported as 4.91 µM (active).

For `C[C@H]1CN([C@@H](C)CO)C(=O)Cc2cc(N(C)C)ccc2O[C@@H]1CN(C)Cc1ccc(Cl)c(Cl)c1`, the AC50 [1] was 2.09 µM (active).

For `CCOc1ccc(CNC(=O)Cn2nc(C)c3c(C)n(-c4ccc(C)cc4)nc3c2=O)cc1`, the IC50 [2] was 6.46 µM (active).

With `O=C(NC(=S)N1CCN(C/C=C/c2ccccc2)CC1)c1ccco1` the IC50 (cells) was 32.2 µM (active).

For `CCCOC(=O)c1ccc(-c2ccc(C=O)o2)cc1`, the IC50 (cells) was 9.73 µM (active).

For `C[C@@H]1CCCCO[C@H](CN(C)Cc2ccc(C(=O)Nc3ccccc3N)cc2)[C@@H](C)CN([C@H](C)CO)C(=O)c2cc(NS(=O)(=O)c3ccc(Cl)cc3)ccc2O1`, the AC50 [1] was 1.11 µM (active).

For `C[C@@H]1CCCCO[C@H](CN(C)C(=O)Nc2ccc(C(F)(F)F)cc2)[C@@H](C)CN([C@H](C)CO)C(=O)c2cc(NC(=O)NC3CCCCC3)ccc2O1`, the AC50 [1] was 2.45 µM (active).

In the case of `Cc1ccc2cc(C)c3nnc(SCC(=O)NCc4ccco4)n3c2c1`, the AC50 (Cytochrome P450 2C19) is reported as 14.1 µM (inconclusive) and the IC50 [2] is reported as 8.54 µM (active).

In the case of `C[C@@H]1CN([C@H](C)CO)C(=O)c2cccc(NS(=O)(=O)c3cccs3)c2O[C@H]1CN(C)Cc1ccc(C(F)(F)F)cc1`, the AC50 [3] is reported as 7.6 µM (active).

In the case of `Sc1c2c(nc3ncnn13)CCC2`, the IC50 (cells) is reported as 16.6 µM (active).
